Data: ChEMBL document CHEMBL5346862, “Discovery of the thieno[2,3-d]pyrimidine-2,4-dione derivative 21a: A potent and orally bioavailable gonadotropin-releasing hormone receptor antagonist” (Eur J Med Chem, 2022)

Experiments:
[1] = Apparent permeability across apical to basolateral side in human Caco-2 cells incubated for 180 mins by LC/MS/MS analysis; format: ADME, cell-based; conditions: for Papp A→B at 3 h: Caco-2
[2] = Apparent permeability across basolateral to apical side in human Caco-2 cells incubated for 180 mins by LC/MS/MS analysis; format: ADME, cell-based; conditions: for Papp B→A at 3 h: Caco-2
[3] = Intrinsic clearance in human liver microsomes incubated for 15 mins in presence of NADPH by LC-MS analysis; format: ADME, Microsome; conditions: read-out: CLH
[4] = Intrinsic clearance in rat liver microsomes incubated for 15 mins in presence of NADPH by LC-MS analysis; format: ADME, Microsome; conditions: read-out: CLH
[5] = Tmax in Sprague-Dawley rat at 12 mg/kg, po measured for 24 hrs by LC/MS analysis; format: ADME, organism-based; conditions: in vivo
[6] = Cmax in Sprague-Dawley rat at 12 mg/kg, po measured for 24 hrs by LC/MS analysis; format: ADME, organism-based; design: dose 12 mg/kg, time 24 hrs, route po; conditions: in vivo
[7] = AUC(last) in Sprague-Dawley rat at 12 mg/kg, po measured for 24 hrs by LC/MS analysis; format: ADME, organism-based; design: time 24 hrs, dose 12 mg/kg, route po; conditions: in vivo
[8] = Half-life in Sprague-Dawley rat at 12 mg/kg, po measured for 24 hrs by LC/MS analysis; format: ADME, organism-based; conditions: in vivo
[9] = Oral bioavailability in Sprague-Dawley rat at 12 mg/kg measured for 24 hrs by LC/MS analysis; format: ADME, organism-based; conditions: in vivo
[10] = Cmax in Sprague-Dawley rat at 1 mg/kg, iv measured for 24 hrs by LC/MS analysis; format: ADME, organism-based; design: time 24 hrs, dose 1 mg/kg, route iv; conditions: in vivo
[11] = AUC(last) in Sprague-Dawley rat at 1 mg/kg, iv measured for 24 hrs by LC/MS analysis; format: ADME, organism-based; design: dose 1 mg/kg, time 24 hrs, route iv; conditions: in vivo
[12] = Clearance in Sprague-Dawley rat at 1 mg/kg, iv measured for 24 hrs by LC/MS analysis; format: ADME, organism-based; conditions: in vivo
[13] = Half-life in Sprague-Dawley rat at 1 mg/kg, iv measured for 24 hrs by LC/MS analysis; format: ADME, organism-based; conditions: in vivo
[14] = Drug uptake in Sprague-Dawley rat hypothalamus and pituitary at 12 mg/kg, po measured after 1 hr by LC-MS/MS analysis; format: ADME, organism-based, Hypothalamus/Pituitary gland; conditions: read-out: Drug uptake
[15] = Drug uptake in Sprague-Dawley rat hypothalamus and pituitary at 12 mg/kg, po measured after 4 hrs by LC-MS/MS analysis; format: ADME, organism-based, Hypothalamus/Pituitary gland; conditions: read-out: Drug uptake
[16] = Drug uptake in Sprague-Dawley rat hypothalamus and pituitary at 12 mg/kg, po measured after 12 hrs by LC-MS/MS analysis; format: ADME, organism-based, Hypothalamus/Pituitary gland; conditions: read-out: Drug uptake
[17] = Drug uptake in Sprague-Dawley rat heart at 12 mg/kg, po measured after 1 hr by LC-MS/MS analysis; format: ADME, organism-based; conditions: read-out: Drug uptake
[18] = Lipophilicity, log D of the compound at pH 7.4; format: physicochemical; conditions: buffer

SMILES | Papp A→B at 3 h [1] [×10⁻⁶ cm/s] | Papp B→A at 3 h [2] [×10⁻⁶ cm/s] | CLint scaled at […] [3] [mL/min/kg] | CLint scaled at […] [4] [mL/min/kg] | also measured
COCCN(C)Cc1c(-c2ccc(NC(=O)NOC)cc2)sc2c1c(=O)n(-c1ccc(OC)nn1)c(=O)n2Cc1c(F)cccc1F | 0.031 | 42.2 | < 6.75 | 15.8 | Tmax [5]: 0.31 h; Cmax [6]: 329 nM; AUC(0-t) at 24 h [7]: 0.904 µM·h; half-life [8]: 4.33 h; bioavailability [9]: 10.9%; Cmax [10]: 1230 nM; AUC(0-t) at 24 h [11]: 0.689 µM·h; clearance [12]: 38.7 mL/min/kg; half-life [13]: 2.6 h
CONC(=O)Nc1ccc(-c2sc3c(c2CN(C)C)c(=O)n(-c2ccc(OC(F)F)nn2)c(=O)n3Cc2c(F)cccc2F)cc1 | 0.019 | 15.1 | < 6.75 | 16.6 | 
CNc1ccc(-n2c(=O)c3c(CN(C)C)c(-c4ccc(NC(=O)NOC)cc4)sc3n(Cc3c(F)cccc3F)c2=O)nn1 | 0.05 | 0.5 | < 6.75 | 34.9 | 
CONC(=O)Nc1ccc(-c2sc3c(c2CN(C)C)c(=O)n(-c2cccc(OC)c2F)c(=O)n3Cc2c(F)cccc2F)cc1 | 0.051 | 21.1 | 52 | 211 | 
CONC(=O)Nc1ccc(-c2sc3c(c2CN(C)CCOC(F)(F)F)c(=O)n(-c2ccc(OC)nn2)c(=O)n3Cc2c(F)cccc2F)cc1 | 0.984 |  | 14.2 | 37.1 | Tmax [5]: 1.13 h; Cmax [6]: 920 nM; AUC(0-t) at 24 h [7]: 7.37 µM·h; half-life [8]: 4.86 h; bioavailability [9]: 44.7%; Cmax [10]: 3920 nM; AUC(0-t) at 24 h [11]: 1.37 µM·h; clearance [12]: 17.5 mL/min/kg; half-life [13]: 2.79 h
CONC(=O)Nc1ccc(-c2sc3c(c2CN(C)C)c(=O)n(-c2ccc(OC)nn2)c(=O)n3Cc2c(F)cccc2C(F)(F)F)cc1 | 0.011 | 4.58 | < 6.75 | < 13.5 | 
CCc1ccc(-n2c(=O)c3c(CN(C)C)c(-c4ccc(NC(=O)NOC)cc4)sc3n(Cc3c(F)cccc3F)c2=O)nn1 | 0.013 | 10.2 | 17.6 | 31.3 | 
C[C@H]1O[C@@H](O[C@H]2[C@@H](O)C[C@H](O[C@H]3[C@@H](O)C[C@H](O[C@H]4CC[C@@]5(C)[C@H](CC[C@@H]6[C@@H]5C[C@@H](O)[C@]5(C)[C@@H](C7=CC(=O)OC7)CC[C@]65O)C4)O[C@@H]3C)O[C@@H]2C)C[C@H](O)[C@@H]1O [DIGOXIN] | 0.013 | 12.8 |  |  | 

The next lines start with results.

Papp A→B at 3 h [1] [×10⁻⁶ cm/s] | Papp B→A at 3 h [2] [×10⁻⁶ cm/s] | CLint scaled at […] [3] [mL/min/kg] | CLint scaled at […] [4] [mL/min/kg] | SMILES | also measured
0.01 | 15.7 | 7.38 | 45.4 | COc1ccc(-n2c(=O)c3c(CN(C)C)c(-c4ccc(NC(=O)NOCC(F)F)cc4)sc3n(Cc3c(F)cccc3F)c2=O)nn1 | 
0.009 | 17.2 | < 6.75 | 38.9 | COc1ccc(-n2c(=O)c3c(CN(C)C)c(-c4ccc(NC(=O)NOCC(F)(F)F)cc4)sc3n(Cc3c(F)cccc3F)c2=O)nn1 | 
 |  | 5.22 | 29.5 | CONC(=O)Nc1ccc(-c2sc3c(c2CN(C)C)c(=O)n(-c2ccc(OC)nn2)c(=O)n3Cc2c(F)cccc2F)cc1 [RELUGOLIX] | Papp ([1]; caco-2, 3 h): 0.007 10^-6 cm/s; Papp ([2]; caco-2, 3 h): 13.84 10^-6 cm/s; Tmax [5]: 0.33 h; Cmax [6]: 35.3 nM; AUC(0-t) at 24 h [7]: 0.234 µM·h; half-life [8]: 3.88 h; bioavailability [9]: 5.7%; Cmax [10]: 544 nM; AUC(0-t) at 24 h [11]: 0.34 µM·h; clearance [12]: 78.3 mL/min/kg; half-life [13]: 3.64 h; concentration at 1 h [14]: 4.46 ng/g; concentration at 4 h [15]: 9.2 ng/g; concentration at 12 h [16]: 3.2 ng/g; concentration at 1 h [17]: 429 ng/g; logD [18]: 1.24
